Test results from US20230048888A1, “USE OF TRIAZOLOTRIAZINE DERIVATIVE IN TREATMENT OF DISEASES” (ZHEJIANG VIMGREEN PHARMACEUTICALS, LTD., priority 2019, published 2023).
Like-named read-outs stand apart in the source and are kept apart here.

What was measured:
[1] = system: reserpine-induced dyskinesia; assay: Rat reserpine-induced dyskinesia model; type: in vivo
human ADORA1 = target: T1, human ADORA1 (Homo sapiens, UniProt P30542); assay: Calcium flow test (FLIPR), ADORA1 stably transfected HEK293; type: cell-based; settings: Table 9
T1 construct: host or cells: HEK293
Text: (§1) The binding of the A2AR agonist to A2AR could activate a downstream pathway to increase the intracellular calcium ion concentration. The antagonist would competitively occupy the binding site where the agonist binds to A2AR, thereby interrupting the intracellular signal transduction and leading to a change in the intracellular calcium ion concentration. By detecting the strength of the intracellular calcium ion signal, the antagonistic activities of the compound on human ADORA1, ADORA2A, ADORA2B and ADORA3 adenosine receptors were determined. […]
(§2) 7) The FLIPR instrument software was operated; following a set program, 10 μL of experimental buffer salt solution was added to the cell plate; and fluorescence signals were read. Then, 10 μL of the reference compound of agonist at a predetermined concentration was added to the cell plate, and the fluorescence signals were read. After reading, data was exported by means of “Max-Min” and “Read 91 to Maximum allowed” in the software, the EC80 of each cell line was calculated, and an agonist with a concentration of 6×EC80 was prepared.
(§3) 9) The FLIPR instrument software was operated; following a set program, 10 μL of the test compound and 10 μL of the reference compound were added at a predetermined concentration to the cell plate; and the fluorescence signals were read. […]

human ADORA2B = target: T2, human ADORA2B (Homo sapiens, UniProt P29275); assay: Calcium flow test (FLIPR), ADORA2B stably transfected HEK293; type: cell-based; settings: Table 9
T2 construct: host or cells: HEK293
Text: as §1, §2, §3

human ADORA2A = target: T3, human ADORA2A (Homo sapiens, UniProt P29274); assay: Calcium flow test (FLIPR), ADORA2A stably transfected CHO; type: cell-based; settings: Table 9
T3 construct: host or cells: CHO
Text: as §1, §2, §3

[2] = Pharmacokinetics of test compounds in SD rats (15.2; IV and PO, mixed administration); type: in vivo; settings: for AUC(0-t) / Cmax / half-life: male, Sprague-Dawley, rat, plasma; for half-life: read-out: T½ (converted)
Procedure: Administration dose: the compounds in this group were all administered in a mixed way, with 6 compounds in each group for mixed PO administration.
Blood was collected based on the blood collection points in the test protocol. 50 μL of plasma sample was added with acetonitrile (containing 5 ng/mL Verapamil) being 3 folds of the volume thereof; the resulting mixture was vortexed for 30 s, and then centrifuged for 15 min at 15,000 rpm at 4° C.; and 10μ L of supernatant was taken for LC-MS/MS analysis.
For each compound, 3 male SD rats weighing 200-220 g were fasted for one night before dosage, but had access to water.
Orally intragastric administration: before intragastric administration and at 0.083 h, 0.25 h, 0.5 h, 1 h, 2 h, 4 h, 8 h and 24 h after administration (for Compounds 40, 27, 40 and 47), or at 0.25 h, 0.5 h, 1 h, 4 h, 6 h and 8 h after administration (for Compounds 44 and 48), orbital blood was collected and put in a test tube that was treated with heparin sodium, and after centrifugation, the supernatant plasma was collected for LC-MS/MS analysis.
The plasma samples were processed according to the method for “sample treatment” and then analyzed by LC-MS/MS, accompanied with the standard curve and quality control samples. At a time point when the upper limit of quantification was exceeded, the samples were diluted 10 or 100 folds for analysis. All measured data were collected and processed by Analyst 1.6.3 software, and the data were calculated and processed with Microsoft Excel. With DAS 3.2.8 software, the pharmacokinetic parameters were calculated by the statistical moment method. The pharmacokinetic parameters mainly include Tmax, t1/2, Cmax, AUC(0-t), etc.

[3] = 7.5 mg/kg intragastric, 0-30 min
[4] = 7.5 mg/kg intragastric, 0-60 min
[5] = 7.5 mg/kg intragastric, 30-60 min
[6] = 15 mg/kg intragastric, 0-30 min
[7] = 15 mg/kg intragastric, 0-60 min
[8] = 15 mg/kg intragastric, 30-60 min
[9] = 30 mg/kg intragastric, 0-30 min
[10] = 30 mg/kg intragastric, 0-60 min
[11] = 30 mg/kg intragastric, 30-60 min

T3 sequence (P29274 whole entry): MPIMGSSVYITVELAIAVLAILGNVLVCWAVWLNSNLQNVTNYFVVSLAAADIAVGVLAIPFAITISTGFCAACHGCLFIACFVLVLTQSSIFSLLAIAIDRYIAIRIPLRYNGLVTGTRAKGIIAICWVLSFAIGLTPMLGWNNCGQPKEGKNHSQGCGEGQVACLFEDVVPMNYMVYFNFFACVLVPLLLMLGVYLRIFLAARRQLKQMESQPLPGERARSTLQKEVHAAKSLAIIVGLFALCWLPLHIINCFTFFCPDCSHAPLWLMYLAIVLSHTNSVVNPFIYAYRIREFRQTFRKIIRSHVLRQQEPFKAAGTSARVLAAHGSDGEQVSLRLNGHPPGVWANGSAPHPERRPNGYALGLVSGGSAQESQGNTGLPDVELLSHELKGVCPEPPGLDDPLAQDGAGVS
T2 sequence (P29275 whole entry): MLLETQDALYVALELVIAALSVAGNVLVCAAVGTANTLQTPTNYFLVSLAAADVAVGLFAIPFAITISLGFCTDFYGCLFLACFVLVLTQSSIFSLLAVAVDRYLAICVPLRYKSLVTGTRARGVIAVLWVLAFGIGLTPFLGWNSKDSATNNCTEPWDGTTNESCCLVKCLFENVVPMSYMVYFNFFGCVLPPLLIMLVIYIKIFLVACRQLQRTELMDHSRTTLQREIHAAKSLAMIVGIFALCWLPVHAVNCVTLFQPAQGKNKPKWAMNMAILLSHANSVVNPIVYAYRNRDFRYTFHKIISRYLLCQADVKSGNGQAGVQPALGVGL
T1 sequence (P30542 whole entry): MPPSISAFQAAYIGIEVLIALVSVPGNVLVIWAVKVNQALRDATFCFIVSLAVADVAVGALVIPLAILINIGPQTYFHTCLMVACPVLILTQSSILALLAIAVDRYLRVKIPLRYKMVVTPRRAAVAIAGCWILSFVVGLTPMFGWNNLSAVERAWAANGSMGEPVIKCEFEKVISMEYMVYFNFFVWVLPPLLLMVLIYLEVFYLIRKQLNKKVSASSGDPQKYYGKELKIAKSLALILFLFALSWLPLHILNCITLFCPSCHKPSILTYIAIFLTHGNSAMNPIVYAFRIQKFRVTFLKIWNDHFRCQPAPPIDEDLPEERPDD

| Cl_F_pred ([2]; SD rats, PO, 10 mg/kg) [mL/min/kg] | F ([2]; SD rats, PO, 10 mg/kg) [%] | AUC(0-t) ([2]; SD rats, PO, 10 mg/kg) [ng·h/mL] | Cmax ([2]; SD rats, PO, 10 mg/kg) [ng/mL] | half-life ([2]; SD rats, PO, 10 mg/kg) [h] | Structure (SMILES) | Number of standings [1, 6] | Walking distance [1, 6] [m] | Walking time [1, 6] [s] | Number of standings [1, 7] | Walking distance [1, 7] [m] | Walking time [1, 7] [s] | Number of standings [1, 8] | Walking distance [1, 8] [m] | Walking time [1, 8] [s] | IC50 (human ADORA1) [nM] | IC50 (human ADORA2B) [nM] | IC50 (human ADORA2A) [nM] | also measured |
| --- | --- | --- | --- | --- | --- | --- | --- | --- | --- | --- | --- | --- | --- | --- | --- | --- | --- | --- |
| – | – | – | – | – | CC(=O)O.Nc1nc(NCCc2ccc(NC3COC3)cc2)nc2nc(-c3ccco3)nn12 [Acetate of Compound 22, 2-(furan-2-yl)-N5-(4-(oxetane-3-ylamino)phenethyl)-[1,2,4]triazolo[1,5-a][1,3,5]triazine-5,7-diamine acetate] | 51.9 ± 7.4 | 1.8 ± 0.4 | 26.3 ± 5.6 | 110 ± 12.7 | 3.8 ± 0.6 | 48.5 ± 8.2 | 58.2 ± 7.7 | 2.0 ± 0.4 | 40.3 ± 15.6 | – | – | – | Number of standings [1, 3]: 28.5 ± 7.1; Walking distance [1, 3]: 0.9 ± 0.3 m; Walking time [1, 3]: 9.3 ± 4.3 s; Number of standings [1, 4]: 56.7 ± 12.6; Walking distance [1, 4]: 2.0 ± 0.6 m; Walking time [1, 4]: 17.8 ± 7.5 s; Number of standings [1, 5]: 28.3 ± 6.9; Walking distance [1, 5]: 1.0 ± 0.3 m; Walking time [1, 5]: 16.2 ± 7.6 s; Number of standings [1, 9]: 56.5 ± 9.6; Walking distance [1, 9]: 2.5 ± 1.0 m; Walking time [1, 9]: 35.8 ± 12.6 s; Number of standings [1, 10]: 97.9 ± 15.3; Walking distance [1, 10]: 3.9 ± 1.4 m; Walking time [1, 10]: 52.9 ± 17.5 s; Number of standings [1, 11]: 41.5 ± 6.7; Walking distance [1, 11]: 1.4 ± 0.4 m; Walking time [1, 11]: 33.2 ± 12.2 s |
| – | – | – | – | – | Nc1nc(NCCc2ccc(NC3COC3)cc2)nc2nc(-c3ccco3)nn12 [Compound 22, 2-(furan-2-yl)-N5-(4-(oxetan-3-ylamino)phenethyl)-[1,2,4]triazolo[1,5-a][1,3,5]triazine-5,7-diamine] | – | – | – | – | – | – | – | – | – | 218 ± 148 | 106 ± 29.2 | 0.35 ± 0.07 | – |
| 139.069 | 127.5 | 1070 | 325 | 2.42 | COCCNc1ccc(CCNc2nc(N)n3nc(-c4ccco4)nc3n2)cc1 [Compound 27, 2-(furan-2-yl)-N5-(4-((2-methoxyethyl)amino)phenethyl)-[1,2,4]triazolo[1,5-a][1,3,5]triazine-5,7-diamine] | – | – | – | – | – | – | – | – | – | – | – | – | – |
| 22.9228 | 46.97 | 6600 | 2440 | 2.44 | Cn1nnc(-c2ccc(CCNc3nc(N)n4nc(-c5ccco5)nc4n3)cc2)n1 [Compound 40, N5-(4-(2-methyl-2H-tetrazol-5-yl)phenethyl)-2-(furan-2-yl)-[1,2,4]triazolo[1,5-a][1,3,5]triazine-5,7-diamine] | – | – | – | – | – | – | – | – | – | 228 ± 105 | 194 ± 25.5 | 1.17 ± 0.62 | half-life ([2]; po, […]): 0.23 h; AUC(0-t) ([2]; SD rats, PO, 2 mg/kg, mixed administration (6 compounds per group)): 2360 ng·h/mL |
| – | – | – | – | – | CCn1c(=O)c2c(nc(/C=C/c3ccc(OC)c(OC)c3)n2C)n(CC)c1=O [Istradefylline, reference compound] | 44.1 ± 7.9 | 1.6 ± 0.6 | 19.6 ± 5.9 | 95.7 ± 16.3 | 2.9 ± 0.9 | 35.1 ± 10.1 | 51.6 ± 9.7 | 1.3 ± 0.4 | 32.0 ± 13.7 | – | – | – | – |
